Columns and labels:
[1] = system: K562 cells (human chronic granulocytic leukemia); assay: K562 human leukemia cell suspension culture, cell concentration; assay type: cell-based; details: 1 ug/ml
Description: In this example, 1 mcg/ml of 3[[5-methyl-2-thienyl]methylene]2, 4 (3H, 5H) furandione was compared to 1 mcg/ml of 3[[3-methyl-2-thienyl]methylene]2, 4 (3H, 5H) furandione.
A conventionally available cell line (K562) derived from human chronic granulocytic leukemia was employed in an in vitro procedure. The leukemia cell line was cultured in a suspension of RPMI 1640 plus 10% fetal calf serum. All initial cell concentrations for the cultures were 0.65 times 10^5 cells/ml. Four separate suspension cultures were employed with the first suspension culture having no additions. The second suspension culture included 100 microliters of the solvent DMSO per 10 ml of culture (control). The third culture contained 1 ug/ml of 3[[5-methyl-2 thienyl]methylene]-2, 4 (3H, 5H) furandione and the fourth culture contained 1 ug/ml of 3[[3-methyl-2-thienyl]methylene]-2, 4 (3H, 5H) furandione. The cell concentration of each of the four cultures was determined. After three days and again after five days.

[2] = system: healthy mice; assay: Toxicology testing in healthy mice: deaths / LD50; assay type: in vivo; details: i.p.
Description: The purpose of this example was to determine approximate toxicity of the compound 3[(5-methyl-2-thienyl) methylene]-2,4(3H,5H)-furandione in healthy mice. The in vivo concentrations employed in the example were selected by using the in vitro results in the Human Tumor Stem Cell Assay as a guide. The compound was given to the mice by means of intra-peritoneal injection. In addition to a control group which was injected with the appropriate carrier solution without drug, three test groups with calculated plasma concentrations of 1, 10 and 100 mcg/ml (low, medium and high concentrations) were prepared. Based upon the results from Table 1, the three test groups represent low, medium and high concentrations of drug dosages. The highest concentration of 100 mcg/ml is about 10 times the predicted effective dose (in vivo) of tumoricidal activity. Each group contained eight animals. Blood was extracted from four animals in each group two days after the intraperitoneal injection and routine hematology (i.e., a hemoglobin concentration, a white blood cell count, and a neutrophil count) procedures were performed.
Half of the animals in each group were sacrificed after one week (Day 7), and the remaining animals in each group were sacrificed after two weeks (Day 14). Routine hematology was performed at the time of sacrifice.

[3] = system: human tumor H5319 BREAST; assay: Human Tumor Stem Cell Assay, colony growth after one hour exposure; assay type: cell-based; details: 1 h
From the text: (§1) The in vitro Human Tumor Stem Cell Assay procedure described as follows has several advantages for testing the effectiveness of chemotherapy drugs such as the 3-(heteroarylalkylene)-2,4(3H,5H)-furandiones. The first advantage is that fresh tumor cells from a variety of tumor types were used rather than a small number of cell lines which have undergone severe selection pressures as they are passed in vitro. The second advantage is that only the anchorage-independent tumor cells will form colonies in soft agar so that any non-malignant cells present in the sample will not form colonies. Perhaps the most important advantage, however, is the emphasis on cells which have the ability to form colonies. These cells, which are generally called stem cells, usually comprise only a small percentage of all tumor cells. They are thought to be the most important cells for growth and distant spread of a tumor. In particular, these cells have the potential to leave the primary tumor and form new tumors at distant sites (called metastases). It is the effectiveness against these very important stem cells that the Human Tumor Stem Cell Assay measures.
(§2) One of the 3-(heteroarylalkylene)-2,4(3H,5H)-furandione compounds, 3-[(5-methyl-2-thienyl) methylene]-2,4(3H,5H)-furandione was evaluated against a series of 10 human tumors in the in vitro Human Tumor Cell Assay, along with conventional and standard chemotherapy agents.
(§3) In the procedure, a single cell suspension was prepared from tumors excised from patients during therapeutic or diagnostic surgical procedures. The human tumor cells were exposed to known anticancer drugs or to [(5-methyl-2-thienyl)methylene]-2,4 (3H, 5H)-furandione at a low (0.2 mcg/ml) or a high (1.0 mcg/ml) concentration for one hour. […] The suspension was washed with tissue culture medium to remove the drug.
(§4) The suspension was then cultured in a double soft agar suspension. Control cells which had been treated identically, except for exposure to the drugs, were also cultured. After one to two weeks, both the tumor cells and the control cells formed colonies in the soft agar which were enumerated under a microscope. The number of colonies grown from the drug-treated cells was compared to the number of colonies grown from the control cells, and the percentage growth after exposure to the drug was calculated.
(§5) The results are illustrated in Table 1, wherein the various numbers indicate the percentage of growth. For example, a small number like 6 means that the number of colonies is only 6% of the number without addition of the compound. On the other hand, a large number like 120 means that the number of colonies is 20% greater with the compound than without.
(§6) Of the nine tumors for which the higher concentration (1.0 mcg/ml) of the furandione was used, five gave inhibition of colony growth corresponding to borderline sensitive (30-50% growth) and four gave inhibition corresponding to sensitivity (0-30% growth). Clinical drugs are normally tested at 10% of their peak plasma concentration. For the standard chemotherapy drugs shown in Table 1, the low concentration (LO) corresponds to this 10% level, and the high concentration (HI) is at 50% of the peak plasma concentration. Of the same nine tumors, only two would have been rated as sensitive or borderline sensitive to any of the other clinical drugs tested.

[4] = system: human tumor H5325 SARCOMA; assay: as above; assay type: cell-based; details: 1 h
From the text: as §1, §2, §3, §4, §5, §6

[5] = system: human tumor H5318 OVARY; assay: as above; assay type: cell-based; details: HI: furandione 1.0 mcg/ml; standard drugs 50% of peak plasma concentration; 1 h
From the text: as §1, §2, §3, §4, §5, §6

[6] = system: human tumor H5315 BREAST; assay: as above; assay type: cell-based; details: LO: furandione 0.2 mcg/ml; standard drugs 10% of peak plasma concentration; 1 h
From the text: as §1, §2, §3, §4, §5, §6

[7] = system: human tumor H5322 STOMACH; assay: as above; assay type: cell-based; details: 1 h
From the text: as §1, §2, §3, §4, §5, §6

[8] = system: human tumor H5330 THYMUS; assay: as above; assay type: cell-based; details: 1 h
From the text: as §1, §2, §3, §4, §5, §6

[9] = system: human tumor H5340 **; assay: as above; assay type: cell-based; details: 1 h
From the text: as §1, §2, §3, §4, §5, §6

[10] = system: human tumor H5331 OVARY; assay: as above; assay type: cell-based; details: 1 h
From the text: as §1, §2, §3, §4, §5, §6

[11] = system: human tumor H5337 COLON; assay: as above; assay type: cell-based; details: 1 h
From the text: as §1, §2, §3, §4, §5, §6

[12] = system: human tumor H5349 BREAST; assay: as above; assay type: cell-based; details: 1 h
From the text: as §1, §2, §3, §4, §5, §6

[13] = HI: furandione 1.0 mcg/ml, standard drugs 50% of peak plasma concentration
[14] = LO: furandione 0.2 mcg/ml, standard drugs 10% of peak plasma concentration

Structure (SMILES): Cc1ccc(C=C2C(=O)COC2=O)s1 [Compound 4, 3[(5-methyl-2-thienyl)methylene]2,4(3H,5H)-furandione]
- effect on leukemia culture [1]: very effective against the leukemia culture as demonstrated by the remarkable decrease in cell concentration
- Cell Conc. ([1]; 3 Days): 70000 mL⁻¹
- Cell Conc. ([1]; 5 Days): 50000 mL⁻¹
- deaths due to the compound ([2]; 1, 10, 100 mcg/ml calculated plasma, testing period): no deaths
- LD50 ([2]; as calculated plasma concentration): > 100 µg/mL
- percentage of growth (colonies vs control) [3, 13]: 6%
- percentage of growth (colonies vs control) [3, 14]: 210%
- percentage of growth (colonies vs control) [4, 13]: 22%
- percentage of growth (colonies vs control) [4, 14]: 44%
- percentage of growth (colonies vs control) [5]: 29%
- percentage of growth (colonies vs control) [6]: 62%
- percentage of growth (colonies vs control) [7, 13]: 36%
- percentage of growth (colonies vs control) [7, 14]: 68%
- percentage of growth (colonies vs control) [8, 13]: 38%
- percentage of growth (colonies vs control) [8, 14]: 79%
- percentage of growth (colonies vs control) [9, 13]: 50%
- percentage of growth (colonies vs control) [9, 14]: 62%
- percentage of growth (colonies vs control) [10, 13]: 48%
- percentage of growth (colonies vs control) [10, 14]: 64%
- percentage of growth (colonies vs control) [11, 13]: 36%
- percentage of growth (colonies vs control) [11, 14]: 58%
- percentage of growth (colonies vs control) [12, 13]: 9%
- percentage of growth (colonies vs control) [12, 14]: 82%

From patent publication US4996227A, “3-(heteroarylalkyene)- and 3-(arylalkylene)-2,4(3H,5H)-heterocyclic diones as cancer chemotherapy drugs” (priority 1989, dated 1991)
